Source: patent publication US6617325B1, “Biphenyl derivatives, production thereof and uses as medicines” (Boehringer Ingelheim Pharma KG, priority 1999, dated 2003)

- melting point: 110 °C
SMILES: CCC(CCCN1CCC(NC(=O)c2ccccc2-c2ccc(C(F)(F)F)cc2)CC1)(CC(=O)OC)c1ccccc1 (stereo not shown) [Example 2, Methyl 2-ethyl-2-phenyl-5-{4-[(4′-trifluoromethyl-biphenyl-2-carbonyl)-amino]-piperidin-1-yl}-pentanecarboxylate]
